Results reported in paper PMC8496750, “Identification of the organic anion transporting polypeptides responsible for the hepatic uptake of the major metabolite of epyrifenacil, S‐3100‐CA, in mice” (Pharmacology Research & Perspectives, 2021).

Tests used:
[1] = ^14C‐plasma, liver, and kidney distribution study with or without OATP inhibitors; format: in vivo, Crl:CD1(ICR) mice; settings: for Kidney/plasma ratio of ^14C / Liver/plasma ratio of ^14C / ^14C‐concentration in liver: 2 h; for Liver/plasma ratio of ^14C‐concentration: oral or intraperitoneal co‐administration of DGX
Description: Crl:CD1(ICR) mice at the age of 7 weeks were purchased from Charles River Laboratories Japan, Inc., Hino Breeding Center. The mice at the age of 8 or 9 weeks were dosed after completing a 7‐day quarantine period and an additional 0‐ to 7‐day acclimatization period. All animal experiments were conducted in accordance with the Guidance for the Care and Use of Laboratory Animals in our laboratory, which corresponds to the Guidelines for Proper Conduct of Animal Experiments (Science Council of Japan). Animals were maintained under constant environmental conditions: room temperature, 21−25°C; relative humidity, 55% ±15%; ventilation, 10 air exchanges per hour; and artificial lighting, from 8:00 am to 8:00 pm. The animals were provided with pelleted diet and water ad libitum. […] All animals were euthanized by bleeding from the abdominal artery under anesthesia.
[^14C]Epyrifenacil was isotopically diluted with the unlabeled test compound to adjust the specific activity to 5.00 MBq/mg. After evaporation of the solvent under nitrogen gas flow, labeled material was suspended in 0.5% (w/v) methylcellulose solution at a concentration of 1 mg/5 ml by grinding in a mortar. The suspension was stored frozen until the start of dosing. The radiochemical purity of the dosing suspension was analyzed by radio‐HPLC and was confirmed to be >99%. […] These dosing suspensions were stored in a refrigerator until dosing commenced.
Three mice per sex at 8 weeks old were given a single oral dose of [^14C]epyrifenacil at 1 mg/kg with or without co‐administration of OATP inhibitors. […] At 2 h after administration of [^14C]epyifenacil, the animals were euthanized by whole blood collection from the abdominal aorta under anesthesia with isoflurane. The sampling time point was selected as the time around T max based on the result of the blood ^14C‐concentration study. Then, the liver and kidney were dissected out, and the amount of ^14C was measured. Aliquots of heparinized blood samples were separated into blood cells and plasma by centrifugation at 2000g for 10 min at 4°C. The total weight of the liver and kidney was determined for each animal. Two aliquots of plasma and tissue samples (approximately 0.05–0.1 g) were weighed in a glass vial, and the radioactivity was measured.

[2] = parameters: method as in PMID 34908893; settings: rats; 90‐day; cited from earlier work
[3] = Female, 2 h after epyrifenacil 1 mg/kg p.o., no inhibitor
[4] = Female, 2 h after epyrifenacil 1 mg/kg p.o., no inhibitor, listed as [^14C]Epyrifenacil
[5] = Male, epyrifenacil 1 mg/kg p.o. + Digoxin 100 mg/kg i.p.
[6] = Male, epyrifenacil 1 mg/kg p.o. + Digoxin 200 mg/kg p.o.
[7] = Male, epyrifenacil 1 mg/kg p.o. + Rifampicin 200 mg/kg p.o.
[8] = Male, epyrifenacil 1 mg/kg p.o., no inhibitor
[9] = Male, 2 h after epyrifenacil 1 mg/kg p.o. + Digoxin 100 mg/kg i.p.
[10] = Male, 2 h after epyrifenacil 1 mg/kg p.o. + Digoxin 100 mg/kg i.p., listed as [^14C]Epyrifenacil
[11] = Male, 2 h after epyrifenacil 1 mg/kg p.o. + Digoxin 200 mg/kg p.o.
[12] = Male, 2 h after epyrifenacil 1 mg/kg p.o. + Digoxin 200 mg/kg p.o., listed as [^14C]Epyrifenacil
[13] = Male, 2 h after epyrifenacil 1 mg/kg p.o. + Rifampicin 200 mg/kg p.o.
[14] = Male, 2 h after epyrifenacil 1 mg/kg p.o. + Rifampicin 200 mg/kg p.o., listed as [^14C]Epyrifenacil
[15] = Male, 2 h after epyrifenacil 1 mg/kg p.o., no inhibitor
[16] = Male, 2 h after epyrifenacil 1 mg/kg p.o., no inhibitor, listed as [^14C]Epyrifenacil

CCOC(=O)COc1ncccc1Oc1cc(-n2c(=O)cc(C(F)(F)F)n(C)c2=O)c(F)cc1Cl [Epyrifenacil, ethyl[(3‐{2‐chloro‐4‐fluoro‐5‐[3‐methyl‐2,6‐dioxo‐4‐(trifluoromethyl)‐3,6‐dihydropyrimidin‐1(2H)‐yl]phenoxy}pyridin‐2‐yl)oxy]acetate]
^14C‐Concentration, Kidney [1, 3]: 0.190 ± 0.0511 μg eq. of epyrifenacil/g tissue
^14C‐Concentration, Liver [1, 3]: 5.136 ± 1.1225 μg eq. of epyrifenacil/g tissue
^14C‐Concentration, Plasma [1, 3]: 0.147 ± 0.0642 μg eq. of epyrifenacil/g tissue
^14C‐Concentration, Kidney [1, 4]: 0.190 μg eq. of epyrifenacil/g tissue
^14C‐Concentration, Liver [1, 4]: 5.136 μg eq. of epyrifenacil/g tissue
^14C‐Concentration, Plasma [1, 4]: 0.147 μg eq. of epyrifenacil/g tissue
Kidney/plasma ratio of ^14C [1, 5]: (1.7)
Liver/plasma ratio of ^14C [1, 5]: (67)
Kidney/plasma ratio of ^14C [1, 6]: (2.6)
Liver/plasma ratio of ^14C [1, 6]: (97)
Liver/plasma ratio of ^14C ([1]; Male, epyrifenacil 1 mg/kg p.o. + Digoxin 200 mg/kg p.o., listed as [^14C]epyrifenacil): ca. 97
Kidney/plasma ratio of ^14C [1, 7]: (0.96)
Liver/plasma ratio of ^14C [1, 7]: (11)
Kidney/plasma ratio of ^14C [1, 8]: (1.3)
Liver/plasma ratio of ^14C [1, 8]: (73)
Liver/plasma ratio of ^14C ([1]; Male, epyrifenacil 1 mg/kg p.o., no inhibitor, listed as [^14C]epyrifenacil): ca. 73
^14C‐Concentration, Kidney [1, 9]: 0.140 ± 0.0527 μg eq. of epyrifenacil/g tissue
^14C‐Concentration, Liver [1, 9]: 5.527 ± 1.3453 μg eq. of epyrifenacil/g tissue
^14C‐Concentration, Plasma [1, 9]: 0.083 ± 0.0027 μg eq. of epyrifenacil/g tissue
^14C‐Concentration, Kidney [1, 10]: 0.140 μg eq. of epyrifenacil/g tissue
^14C‐Concentration, Liver [1, 10]: 5.527 μg eq. of epyrifenacil/g tissue
^14C‐Concentration, Plasma [1, 10]: 0.083 μg eq. of epyrifenacil/g tissue
^14C‐Concentration, Kidney [1, 11]: 0.044 ± 0.0051 μg eq. of epyrifenacil/g tissue
^14C‐Concentration, Liver [1, 11]: 1.647 ± 0.7217 μg eq. of epyrifenacil/g tissue
^14C‐Concentration, Plasma [1, 11]: 0.017 ± 0.0064 μg eq. of epyrifenacil/g tissue
^14C‐Concentration, Kidney [1, 12]: 0.044 μg eq. of epyrifenacil/g tissue
^14C‐Concentration, Liver [1, 12]: 1.647 μg eq. of epyrifenacil/g tissue
^14C‐Concentration, Plasma [1, 12]: 0.017 μg eq. of epyrifenacil/g tissue
^14C‐Concentration, Kidney [1, 13]: 0.144 ± 0.0794 μg eq. of epyrifenacil/g tissue
^14C‐Concentration, Liver [1, 13]: 1.671 ± 1.2478 μg eq. of epyrifenacil/g tissue
^14C‐Concentration, Plasma [1, 13]: 0.151 ± 0.0791 μg eq. of epyrifenacil/g tissue
^14C‐Concentration, Kidney [1, 14]: 0.144 μg eq. of epyrifenacil/g tissue
^14C‐Concentration, Liver [1, 14]: 1.671 μg eq. of epyrifenacil/g tissue
^14C‐Concentration, Plasma [1, 14]: 0.151 μg eq. of epyrifenacil/g tissue
^14C‐Concentration, Kidney [1, 15]: 0.124 ± 0.0180 μg eq. of epyrifenacil/g tissue
^14C‐Concentration, Liver [1, 15]: 6.763 ± 0.1014 μg eq. of epyrifenacil/g tissue
^14C‐Concentration, Plasma [1, 15]: 0.092 ± 0.0066 μg eq. of epyrifenacil/g tissue
^14C‐Concentration, Kidney [1, 16]: 0.124 μg eq. of epyrifenacil/g tissue
^14C‐Concentration, Liver [1, 16]: 6.763 μg eq. of epyrifenacil/g tissue
^14C‐Concentration, Plasma [1, 16]: 0.092 μg eq. of epyrifenacil/g tissue
Liver/plasma ratio of ^14C‐concentration ([1]; female): 41–43
^14C‐concentration in liver ([1]; females, co‐administration of RIF 200 mg/kg oral): 0.880 ppm
^14C‐concentration in liver ([1]; females, epyrifenacil 1 mg/kg p.o., no inhibitor): 5.136 ± 1.1225 ppm
Liver/plasma ratio of ^14C‐concentration ([1]; male): 67–97
^14C‐concentration in liver ([1]; males, co‐administration of RIF 200 mg/kg oral): 1.671 ppm
^14C‐concentration in liver ([1]; males, epyrifenacil 1 mg/kg p.o., no inhibitor, ppm = µg eq. of epyrifenacil/g): 6.763 ± 0.1014 ppm
Hepatocyte injury [2]: produced hepatocyte injury
